Assay type in all cases: cell-based
Assay [1] in a line: Antagonist activity at human GluN1-1a/[…] receptor expressed in Xenopus laevis oocytes assessed as inhibition of glutamate/glycine-induced current at pH 6.9 with -40 mV holding potential by two-electrode voltage-clamp method. The conditions noted are these: Oocyte.
Assay [2] can be described thus: Antagonist activity at human GluN1-1a/[…] receptor expressed in Xenopus laevis oocytes assessed as inhibition of glutamate/glycine-induced current at pH 7.6 with -40 mV holding potential by two-electrode voltage-clamp method. The conditions noted are these: Oocyte. Background: Two-electrode voltage clamp is typically applied to oocytes expressing channels or transporters.

The subject of assay [3] is Oocyte. Description: Selectivity ratio of IC50 for antagonist activity at human GluN1-1a/GluN2A receptor expressed in Xenopus laevis oocytes at pH 7.6 to antagonist activity at human GluN1-1a/GluN2A receptor expressed in Xenopus laevis oocytes at pH 6.9.

On to `NC(=O)Nc1ccc(OC[C@H](O)CN2CCN(c3ccc(Cl)cc3)CC2)cc1`, for which the results for the half-maximal inhibitory concentration (IC50) in assay [1] and in assay [2] were 19 nM and 60 nM, respectively. Besides, the Ratio IC50 in assay [3] was found to be 3.2.
Consider `NC(=O)Nc1ccc(OC[C@H](O)CN2CCN(c3ccc(Cl)c(Cl)c3)CC2)cc1`, for which the IC50 (in general, the concentration needed to halve the response being measured) stood at 30 nM in assay [1] and 132 nM in assay [2]. In addition, the Ratio IC50 in assay [3] stood at 4.4.
With `O=C1CCc2cc(OC[C@@H](O)CN3CCN(c4ccc(C(F)(F)F)cc4)CC3)ccc2N1`, the IC50 in assay [1] was determined as 111 nM; in assay [2], 717 nM. The Ratio IC50 in assay [3] came to 6.5.
`NC(=O)Nc1ccc(OC[C@@H](O)CN2CCN(c3ccc(Cl)c(Cl)c3)CC2)cc1`: the IC50 in assay [1] stood at 103 nM; in assay [2], 947 nM. Also, the Ratio IC50 in assay [3] amounted to 9.2.
Turning to `NC(=O)Nc1ccc(OC[C@@H](O)CN2CCN(c3ccc(Cl)cc3)CC2)cc1`, the IC50 in assay [1] amounted to 46 nM; in assay [2], 452 nM. The Ratio IC50 in assay [3] was 9.8.
Taken in the same sequence, the figures for `O=C1CCc2cc(OC[C@H](O)CN3CCN(c4ccc(C(F)(F)F)cc4)CC3)ccc2N1` [NP-10679] were 23 nM, 142 nM and 6.2.

These data come from ChEMBL document CHEMBL6103671, “Novel Piperazine Derivatives as Selective Antagonists of GluN2B-Containing NMDARs under Acidic pH Conditions” (ACS Med Chem Lett, 2025).
